#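 96-well plates; 48 h exposure; 5 concentrations. Endpoints by linear interpolation between flanking doses. Not reached: highest tested concentration assigned. TGI is the concentration that stops growth completely.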
# Tests used:
# Assay in all cases: NCI anticancer screen, dose series, 48 h
# A498 renal = test system: A498 renal
# ACHN renal = test system: ACHN renal
# HOP-18 NSCLC = test system: HOP-18 NSCLC
# IGROV1 ovarian = test system: IGROV1 ovarian
# KM12 colon = test system: KM12 colon
# LXFL 529 NSCLC = test system: LXFL 529 NSCLC
# OVCAR-8 ovarian = test system: OVCAR-8 ovarian
# RPMI-8226 leukemia = test system: RPMI-8226 leukemia
# SF-268 CNS = test system: SF-268 CNS
# SF-539 CNS = test system: SF-539 CNS
# SK-MEL-2 melanoma = test system: SK-MEL-2 melanoma
# SR leukemia = test system: SR leukemia
# EKVX NSCLC = test system: EKVX NSCLC
# KM20L2 colon = test system: KM20L2 colon
# M19-MEL melanoma = test system: M19-MEL melanoma
# MCF7 breast = test system: MCF7 breast
# NCI/ADR-RES ovarian = test system: NCI/ADR-RES ovarian
# RXF 393 renal = test system: RXF 393 renal
# XF 498 CNS = test system: XF 498 CNS
# RXF-631 renal = test system: RXF-631 renal
smiles,measurement,setting,value
Cc1nc2c(sc(=S)n2-c2ccccc2)c(=O)[nH]1,TGI,A498 renal,> 100 µM
same,TGI,ACHN renal,> 100 µM
same,TGI,HOP-18 NSCLC,> 100 µM
same,TGI,IGROV1 ovarian,> 100 µM
same,TGI,KM12 colon,> 100 µM
same,TGI,LXFL 529 NSCLC,> 100 µM
same,TGI,OVCAR-8 ovarian,> 100 µM
same,TGI,RPMI-8226 leukemia,> 100 µM
same,TGI,SF-268 CNS,> 100 µM
same,TGI,SF-539 CNS,> 100 µM
same,TGI,SK-MEL-2 melanoma,> 100 µM
same,TGI,SR leukemia,> 100 µM
COc1ccccc1Cc1nc(-c2ccccc2)nn(C2OC(COC(C)=O)C(OC(C)=O)C(OC(C)=O)C2OC(C)=O)c1=S (configuration not stated),TGI,A498 renal,> 56.2 µM
same,TGI,EKVX NSCLC,> 86.4 µM
same,TGI,HOP-18 NSCLC,97.7 µM
same,TGI,IGROV1 ovarian,> 93.9 µM
same,TGI,KM12 colon,> 100 µM
same,TGI,KM20L2 colon,> 100 µM
same,TGI,M19-MEL melanoma,> 100 µM
same,TGI,MCF7 breast,33.9 µM
same,TGI,NCI/ADR-RES ovarian,> 100 µM
same,TGI,OVCAR-8 ovarian,> 100 µM
same,TGI,RPMI-8226 leukemia,80.6 µM
same,TGI,RXF 393 renal,31.9 µM
same,TGI,SF-268 CNS,60.4 µM
same,TGI,SF-539 CNS,33.6 µM
same,TGI,SK-MEL-2 melanoma,41.3 µM
same,TGI,XF 498 CNS,6.49 µM
COc1ccc(C2N(NC(=O)c3ccncc3)C(=O)CS2(=O)=O)cc1F (configuration not stated),TGI,A498 renal,> 100 µM
same,TGI,ACHN renal,> 100 µM
same,TGI,HOP-18 NSCLC,> 100 µM
same,TGI,KM12 colon,> 100 µM
same,TGI,LXFL 529 NSCLC,> 100 µM
same,TGI,RPMI-8226 leukemia,> 100 µM
same,TGI,RXF 393 renal,> 100 µM
same,TGI,RXF-631 renal,> 100 µM
same,TGI,SF-268 CNS,> 100 µM
same,TGI,SK-MEL-2 melanoma,> 100 µM
same,TGI,SR leukemia,> 100 µM
same,TGI,XF 498 CNS,> 100 µM
COc1cc2c(cc1OC)C(Cl)C(c1ccc(Cl)c(Cl)c1)=C2Cl (configuration not stated),TGI,A498 renal,34 µM
same,TGI,ACHN renal,21.8 µM
same,TGI,EKVX NSCLC,44.7 µM
same,TGI,HOP-18 NSCLC,37 µM
same,TGI,IGROV1 ovarian,28.9 µM
same,TGI,KM20L2 colon,25.7 µM
same,TGI,LXFL 529 NSCLC,17.2 µM
same,TGI,M19-MEL melanoma,32.2 µM
same,TGI,OVCAR-8 ovarian,19.5 µM
same,TGI,RPMI-8226 leukemia,12.8 µM
same,TGI,SF-539 CNS,22.2 µM
same,TGI,SK-MEL-2 melanoma,21.3 µM
COc1cc2cc[n+]3c(C)c4cc(OC)c(OC)cc4c([O-])c3c2cc1OC,TGI,A498 renal,> 100 µM
same,TGI,ACHN renal,> 100 µM
same,TGI,EKVX NSCLC,> 100 µM
same,TGI,IGROV1 ovarian,72.8 µM
same,TGI,KM12 colon,> 100 µM
same,TGI,KM20L2 colon,> 100 µM
same,TGI,LXFL 529 NSCLC,> 100 µM
same,TGI,M19-MEL melanoma,> 100 µM
same,TGI,OVCAR-8 ovarian,> 100 µM
same,TGI,RPMI-8226 leukemia,> 100 µM
same,TGI,RXF 393 renal,89.9 µM
same,TGI,SF-268 CNS,> 100 µM
same,TGI,SF-539 CNS,> 100 µM
same,TGI,SK-MEL-2 melanoma,> 100 µM
same,TGI,SR leukemia,> 100 µM
same,TGI,XF 498 CNS,82.1 µM
NCCCN(CCCN)CCN(CCN(CCCN)CCCN)CCN(CCCN)CCCN,TGI,ACHN renal,> 100 µM
same,TGI,IGROV1 ovarian,> 100 µM
same,TGI,MCF7 breast,> 100 µM
same,TGI,NCI/ADR-RES ovarian,> 100 µM
same,TGI,OVCAR-8 ovarian,> 100 µM
same,TGI,RPMI-8226 leukemia,> 100 µM
same,TGI,SK-MEL-2 melanoma,> 100 µM
same,TGI,SR leukemia,> 100 µM
COc1cc(C(C)c2cc3c(cc2OCCO)OCO3)cc(OC)c1OC (configuration not stated),TGI,ACHN renal,> 100 µM
same,TGI,EKVX NSCLC,> 100 µM
same,TGI,HOP-18 NSCLC,> 100 µM
same,TGI,IGROV1 ovarian,> 100 µM
same,TGI,LXFL 529 NSCLC,> 100 µM
same,TGI,M19-MEL melanoma,> 100 µM
same,TGI,OVCAR-8 ovarian,> 100 µM
same,TGI,RPMI-8226 leukemia,> 100 µM
same,TGI,RXF 393 renal,3.43 µM
same,TGI,SF-268 CNS,> 100 µM
same,TGI,SF-539 CNS,4.81 µM
same,TGI,SK-MEL-2 melanoma,> 100 µM
same,TGI,SR leukemia,0.932 µM
same,TGI,XF 498 CNS,5.33 µM
CCOC(=O)Cc1cc(OC)c(OC)cc1/C(Cl)=C(\C=O)c1ccc(OC)c(OC)c1,TGI,ACHN renal,55.6 µM
same,TGI,EKVX NSCLC,71.7 µM
same,TGI,HOP-18 NSCLC,75.4 µM
same,TGI,IGROV1 ovarian,78.9 µM
same,TGI,KM20L2 colon,35.7 µM
same,TGI,M19-MEL melanoma,55.6 µM
same,TGI,OVCAR-8 ovarian,80.8 µM
same,TGI,RPMI-8226 leukemia,43.1 µM
same,TGI,RXF 393 renal,> 100 µM
same,TGI,RXF-631 renal,49 µM
same,TGI,SK-MEL-2 melanoma,62.9 µM
same,TGI,XF 498 CNS,46.2 µM

# From PubChem BioAssay (NCI)
